Assay results as given in PubChem BioAssay (NCI).
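96-well plates; 48 h exposure; 5 concentrations. Endpoints by linear interpolation between flanking doses. Not reached: highest tested concentration assigned. GI50 marks 50% less growth. The concentration for full growth arrest is given as TGI.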 *1 amine or outer side, *2 acyl side, *3 side chain or, on linkers, in order; H or OH if unused. Where a SMILES comes first, the peptide text is derived from it. Bridges are numbered along the chain shown (N, C = ends). Roman numbers before positions name the chains, in order. [ ]: non-standard residue; d: D form. Actinocin(9to1) = Cc1c2oc3c(C)ccc(C(=O)[*:1])c3nc-2c(C(=O)[*:2])c(N)c1=O; Hyp = O=C(O)[CH]1C[CH](O)CN1; NMeV = CN[CH](C(=O)O)C(C)C; Sar = CNCC(=O)O

Columns and labels:
Assay in all cases: DTP human tumour cell line panel, 48 h; in the data active means GI50 below about 0.43 µM; inactive means the rest
MDA-MB-435 = tested on: MDA-MB-435
RXF 393 renal = tested on: RXF 393 renal
786-0 renal = tested on: 786-0 renal
SF-295 CNS = tested on: SF-295 CNS
TK-10 renal = tested on: TK-10 renal
SK-MEL-28 melanoma = tested on: SK-MEL-28 melanoma
UACC-62 melanoma = tested on: UACC-62 melanoma
OVCAR-4 ovarian = tested on: OVCAR-4 ovarian
NCI/ADR-RES ovarian = tested on: NCI/ADR-RES ovarian
KM12 colon = tested on: KM12 colon

O=C(OC1CN2CCC1CC2)N(c1ccccc1)c1ccccc1 (centres undefined)
> 100 µM: TGI (MDA-MB-435) | TGI (RXF 393 renal) | TGI (786-0 renal) | TGI (SF-295 CNS) | TGI (TK-10 renal) | TGI (SK-MEL-28 melanoma) | TGI (UACC-62 melanoma) | TGI (OVCAR-4 ovarian) | TGI (NCI/ADR-RES ovarian)

O=C1CSC(c2ccc([N+](=O)[O-])cc2)N1c1ccc(-c2ccc(-n3c(-c4ccccc4)nc4ccccc4c3=O)cc2)cc1 (centres undefined)
> 100 µM: TGI (MDA-MB-435) | TGI (KM12 colon) | TGI (786-0 renal) | TGI (SF-295 CNS) | TGI (TK-10 renal) | TGI (SK-MEL-28 melanoma) | TGI (UACC-62 melanoma) | TGI (OVCAR-4 ovarian) | TGI (NCI/ADR-RES ovarian)

CCCCCCCCCCCCCCCCCCNC(=S)/N=C/c1c(O)c2ccccc2[nH]c1=O
41 µM: TGI (OVCAR-4 ovarian)
35.1 µM: TGI (NCI/ADR-RES ovarian)
53.5 µM: TGI (RXF 393 renal)
29.8 µM: TGI (786-0 renal)
42.3 µM: TGI (MDA-MB-435)
47.9 µM: TGI (SF-295 CNS)
56.1 µM: TGI (TK-10 renal)
30.9 µM: TGI (KM12 colon)
40.4 µM: TGI (SK-MEL-28 melanoma)

O=P(Nc1ccccc1)(Oc1ccccc1)N(CCCl)CCCl (centres undefined)
> 100 µM: TGI (KM12 colon) | TGI (SF-295 CNS) | TGI (TK-10 renal) | TGI (SK-MEL-28 melanoma) | TGI (UACC-62 melanoma) | TGI (OVCAR-4 ovarian)

O=C(Nc1ccccc1Cl)c1ccc([N+](=O)[O-])cc1
> 100 µM: TGI (RXF 393 renal) | TGI (KM12 colon) | TGI (786-0 renal) | TGI (SF-295 CNS) | TGI (TK-10 renal) | TGI (SK-MEL-28 melanoma) | TGI (UACC-62 melanoma)

COc1cc(C2C3=C(CCCC3=O)N(c3ccc(C)cc3)C3=C2C(=O)CCC3)c([N+](=O)[O-])cc1OC
> 100 µM: TGI (RXF 393 renal) | TGI (KM12 colon) | TGI (786-0 renal) | TGI (TK-10 renal) | TGI (SK-MEL-28 melanoma) | TGI (UACC-62 melanoma) | TGI (OVCAR-4 ovarian) | TGI (NCI/ADR-RES ovarian)

Cc1cc(OCCOCCC(F)(F)P(=O)(O)O)ccc1CCc1cnc2c(N)nc3cc(CCC(=O)O)ccc3c2c1
> 100 µM: TGI (MDA-MB-435) | TGI (RXF 393 renal) | TGI (KM12 colon) | TGI (SF-295 CNS) | TGI (TK-10 renal) | TGI (SK-MEL-28 melanoma) | TGI (UACC-62 melanoma) | TGI (OVCAR-4 ovarian) | TGI (NCI/ADR-RES ovarian)
inactive: GI50 (MDA-MB-435) > 100 µM | GI50 (RXF 393 renal) > 100 µM | GI50 (KM12 colon) > 100 µM | GI50 (SF-295 CNS) > 100 µM | GI50 (TK-10 renal) > 100 µM | GI50 (SK-MEL-28 melanoma) > 100 µM | GI50 (UACC-62 melanoma) > 100 µM | GI50 (OVCAR-4 ovarian) > 100 µM | GI50 (NCI/ADR-RES ovarian) > 100 µM

CCn1c2c(c3ccccc31)[C@@H](c1ccc(Cl)cc1)CC1C(=O)N(c3ccccc3)C(=O)C21 (some centres undefined)
> 100 µM: TGI (RXF 393 renal) | TGI (KM12 colon) | TGI (786-0 renal) | TGI (SF-295 CNS) | TGI (TK-10 renal) | TGI (SK-MEL-28 melanoma) | TGI (UACC-62 melanoma) | TGI (OVCAR-4 ovarian)

O=C(c1cccnc1)N1N=C(c2ccccc2)CC1(O)c1cc(F)c(Cl)cc1Cl (centres undefined)
53.6 µM: TGI (786-0 renal)
36.9 µM: TGI (SF-295 CNS)
34.9 µM: TGI (RXF 393 renal)
65.5 µM: TGI (SK-MEL-28 melanoma)
83.7 µM: TGI (NCI/ADR-RES ovarian)
> 100 µM: TGI (MDA-MB-435) | TGI (KM12 colon) | TGI (TK-10 renal) | TGI (OVCAR-4 ovarian)

C=CC(C)C1(CCCOCc2ccccc2)C(=S)N2CCC3(CC24CCCC14)OCCO3 (centres undefined)
> 100 µM: TGI (RXF 393 renal) | TGI (KM12 colon) | TGI (SF-295 CNS) | TGI (TK-10 renal) | TGI (SK-MEL-28 melanoma) | TGI (UACC-62 melanoma) | TGI (OVCAR-4 ovarian)

OC12c3ccccc3C1CCCCCCCCCC21OCCO1 (centres undefined)
> 100 µM: TGI (RXF 393 renal) | TGI (KM12 colon) | TGI (786-0 renal) | TGI (SF-295 CNS) | TGI (TK-10 renal) | TGI (SK-MEL-28 melanoma) | TGI (UACC-62 melanoma) | TGI (OVCAR-4 ovarian)

COC(=O)CNC(=O)CCC(C)[C@H]1CCC2C3C(C[C@H](OC(C)=O)[C@@]21C)[C@@]1(C)CCC2(C[C@H]1C[C@H]3OC(C)=O)OOC1(CC[C@]3(C)C4C[C@H](OC(C)=O)[C@@]5(C)C(CC[C@@H]5C(C)CCC(=O)NCC(=O)OC)C4[C@H](OC(C)=O)C[C@@H]3C1)OO2 (some centres undefined)
41.2 µM: TGI (KM12 colon)
13.3 µM: TGI (OVCAR-4 ovarian)
2.55 µM: TGI (TK-10 renal)
> 50 µM: TGI (MDA-MB-435) | TGI (NCI/ADR-RES ovarian)
9.52 µM: TGI (SK-MEL-28 melanoma)
24.7 µM: TGI (SF-295 CNS)
1.42 µM: TGI (786-0 renal)

Cc1cc2n[n+]3[n-]cc(-c4ccccc4)n3c2cc1[N+](=O)[O-]
> 100 µM: TGI (MDA-MB-435) | TGI (RXF 393 renal) | TGI (KM12 colon) | TGI (786-0 renal) | TGI (SF-295 CNS) | TGI (TK-10 renal) | TGI (SK-MEL-28 melanoma) | TGI (UACC-62 melanoma) | TGI (OVCAR-4 ovarian)

Nc1ccc2ccc(N3CCNCC3)nc2n1
> 100 µM: TGI (MDA-MB-435) | TGI (KM12 colon) | TGI (786-0 renal) | TGI (SF-295 CNS) | TGI (TK-10 renal) | TGI (SK-MEL-28 melanoma) | TGI (UACC-62 melanoma) | TGI (OVCAR-4 ovarian) | TGI (NCI/ADR-RES ovarian)

C=CCN1/C(=C2\SC(=S)N(c3ccc(C)cc3)C2=O)Sc2c1ncn(C)c2=O
> 100 µM: TGI (KM12 colon) | TGI (786-0 renal) | TGI (SF-295 CNS) | TGI (TK-10 renal) | TGI (UACC-62 melanoma) | TGI (OVCAR-4 ovarian)

Cc1c2oc3c(C)ccc(C(=O)NC4C(=O)NC(C(C)C)C(=O)N5CC(O)CC5C(=O)N(C)CC(=O)N(C)C(C(C)C)C(=O)OC4C)c3nc-2c(C(=O)NC2C(=O)NC(C(C)C)C(=O)N3CC(O)CC3C(=O)N(C)CC(=O)N(C)C(C(C)C)C(=O)OC2C)c(N)c1=O (centres undefined) (I: TV[Hyp][Sar][NMeV] / II: TV[Hyp][Sar][NMeV]; ester I:1-I:C, II:1-II:C; linker I:N-II:N via Actinocin(9to1); configuration not given here)
> 1 µM: TGI (MDA-MB-435) | TGI (RXF 393 renal) | TGI (KM12 colon) | TGI (786-0 renal) | TGI (SF-295 CNS) | TGI (TK-10 renal) | TGI (SK-MEL-28 melanoma) | TGI (OVCAR-4 ovarian) | TGI (NCI/ADR-RES ovarian)

CCCCCCCCCCCCCC[n+]1ccc(C(N)=O)cc1
4.65 µM: TGI (UACC-62 melanoma)
inactive: GI50 (MDA-MB-435) 1.87 µM | GI50 (SF-295 CNS) 1.76 µM | GI50 (TK-10 renal) 1.18 µM | GI50 (SK-MEL-28 melanoma) 2.83 µM | GI50 (UACC-62 melanoma) 1.9 µM | GI50 (OVCAR-4 ovarian) 3.26 µM | GI50 (NCI/ADR-RES ovarian) 19 µM
4.64 µM: TGI (MDA-MB-435)
50.2 µM: TGI (NCI/ADR-RES ovarian)
18.2 µM: TGI (OVCAR-4 ovarian)
7.49 µM: TGI (SK-MEL-28 melanoma)
5.06 µM: TGI (SF-295 CNS)
2.79 µM: TGI (TK-10 renal)

CCOC(=O)C(Cc1ccccc1)NC(=O)c1[nH]cnc1/N=N/N(C)C (centres undefined)
> 100 µM: TGI (KM12 colon) | TGI (786-0 renal) | TGI (SF-295 CNS) | TGI (SK-MEL-28 melanoma) | TGI (UACC-62 melanoma) | TGI (OVCAR-4 ovarian)

O=c1[nH]nc(Cc2ccccc2)n1/N=C/c1cccnc1
> 100 µM: TGI (MDA-MB-435) | TGI (RXF 393 renal) | TGI (KM12 colon) | TGI (786-0 renal) | TGI (SF-295 CNS) | TGI (TK-10 renal) | TGI (SK-MEL-28 melanoma) | TGI (OVCAR-4 ovarian) | TGI (NCI/ADR-RES ovarian)

O=C(N/N=C\c1cccc2ccccc12)Nc1cccc2ccccc12
56.5 µM: TGI (TK-10 renal)
28.1 µM: TGI (786-0 renal)
> 100 µM: TGI (KM12 colon) | TGI (SK-MEL-28 melanoma) | TGI (NCI/ADR-RES ovarian)
24.3 µM: TGI (MDA-MB-435)
43.4 µM: TGI (RXF 393 renal)

COC(=O)[C@]1(c2ccc(N(C)C)cc2OC)C[C@@H]2CCCN(CCc3c1[nH]c1ccccc31)C2
> 55.9 µM: TGI (KM12 colon)
35.1 µM: TGI (SK-MEL-28 melanoma)
> 60.7 µM: TGI (SF-295 CNS)
37.9 µM: TGI (RXF 393 renal)
32.4 µM: TGI (UACC-62 melanoma)
35.8 µM: TGI (NCI/ADR-RES ovarian)
28.2 µM: TGI (OVCAR-4 ovarian)

CNC(=O)SCC(NC(=O)CCC(N)C(=O)O)C(=O)NCC(=O)O (centres undefined)
> 100 µM: TGI (RXF 393 renal) | TGI (KM12 colon) | TGI (SF-295 CNS) | TGI (SK-MEL-28 melanoma) | TGI (UACC-62 melanoma) | TGI (OVCAR-4 ovarian) | TGI (NCI/ADR-RES ovarian)
